tested on: NF-κB; assay: NF-κB assay: THP1-NF-κB-LUC cells, LPS-stimulated secreted luciferase; type: cell-based; settings: THP1-NF-κB-LUC cells, LPS-stimulated; read-out: IC50 (NF-κB assay)
Experimental: FIG. 1 contains line plots showing NF-κB activity of exemplified compounds. 25k THP1-NF-κB-LUC cells were dispensed into 384 well plate (per well). Cells were treated with compounds (2 μM and 0.2 μM) for 2 hours before addition of LPS (10 ng/mL) for 18 hours. Secreted luciferase activity were measured using quant-luc reagents (1 bag of luc reagent dilute to 40 mL, use 10 μL per well). Data were normalized to vehicle control and graphed. Structures of selected exemplified compounds are shown.
FIG. 2 contains heat charts showing NF-κB activity of exemplified compounds as a function of concentration. 25k THP1-NF-κB-LUC cells were dispensed into 384 well plate (per well). Cells were treated with compounds (with serial dilution) for 2 hours before addition of LPS (10 ng/ml) for 18 hours. Secreted luciferase activity were measured using quant-luc reagents (1 bag of luc reagent dilute to 40 mL, use 10 μL per well). Structures of selected exemplified compounds are shown.
25k THP1-NF-κB-LUC cells were dispensed into 384 well plate (per well). Cells were treated with compounds with various concentrations for 2 hours before addition of LPS (10 ng/mL) for 18 hours. Secreted luciferase activity were measured using quant-luc reagents (1 bag of luc reagent dilute to 40 mL, use 10 μL per well). Data were normalized to vehicle control and graphed. Compound IC50 towards inhibiting NF-κB were determined through Prism. Similarly, 10k human PBMCs cells were cultured in 384 well plate (per well). Cells were treated with compounds with various concentrations for 2 hours before addition of LPS (10 ng/ml) for 18 hours, and supernatants were collected and assayed for TNF ELISA. Compound IC50 towards inhibiting TNF release were determined through Prism. • Activity: “+”>10 μM, “++”>1 μM and <10 μM, “+++”>0.1 μM and <1 μM, “++++”<0.1 μM.

Row | Compound | IC50 [nM]
1 | Cc1ccc(CNC(=O)c2ccc3nc(-c4cccc(C)c4)c(-c4cccc(C)c4)nc3c2)cc1 [BC18468] | > 10000
2 | CCN(CC)CCCNC(=O)c1ccc2nc(-c3ccc(F)cc3)c(-c3ccc(F)cc3)nc2c1 [BC18469] | < 100
3 | NC(=O)C1CCN(C(=O)c2ccc3nc(-c4ccc(F)cc4)c(-c4ccc(F)cc4)nc3c2)CC1 [BC18471] | < 100
4 | Cc1cccc(-c2nc3ccc(C(=O)NCCN(C)C4CCCCC4)cc3nc2-c2cccc(C)c2)c1 [BC18474] | 1000 to 10000
5 | O=C(c1ccc2nc(-c3ccccc3)c(-c3ccccc3)nc2c1)N1CCN(c2ccccn2)CC1 [BC18476] | 100 to 1000
6 | CN(C)c1ccc(CNC(=O)c2ccc3nc(-c4ccc(F)cc4)c(-c4ccc(F)cc4)nc3c2)cc1 [BC18478] | 100 to 1000
7 | CN(C)CCNC(=O)c1ccc2nc(-c3ccc(F)cc3)c(-c3ccc(F)cc3)nc2c1 [BC18480] | < 100
8 | O=C(NCc1cccs1)c1ccc2nc(-c3ccc(F)cc3)c(-c3ccc(F)cc3)nc2c1 [BC18481] | < 100
9 | CN1CCN(C(=O)c2ccc3nc(-c4ccc(F)cc4)c(-c4ccc(F)cc4)nc3c2)CC1 [BC18482] | < 100
10 | CCOc1ccc(-c2nc3ccc(C(=O)NCCN(C)Cc4ccccc4)cc3nc2-c2ccc(OCC)cc2)cc1 [BC18488] | 1000 to 10000
11 | O=S(=O)(c1ccccc1)c1nc(-c2ccc(F)cc2)oc1SCc1ccccc1F [BC18504] | 1000 to 10000
12 | CCCCSc1oc(-c2ccc(F)cc2)nc1S(=O)(=O)c1ccc(C)cc1 [BC18505] | 1000 to 10000
13 | CCS(=O)(=O)c1oc(-c2ccc(F)cc2)nc1S(=O)(=O)c1ccccc1 [BC18508] | < 100
14 | CC(C)S(=O)(=O)c1oc(-c2ccc(F)cc2)nc1S(=O)(=O)c1ccc(Br)cc1 [BC18511] | < 100

Other lines, results leading:

Row | IC50 [nM] | Compound
15 | < 100 | COCCNC(=O)c1ccc2nc(-c3ccc(F)cc3)c(-c3ccc(F)cc3)nc2c1 [BC18470]
16 | 100 to 1000 | CCN1CCN(CCCNC(=O)c2ccc3nc(-c4ccccc4)c(-c4ccccc4)nc3c2)CC1 [BC18472]
17 | < 100 | CCN1CCN(C(=O)c2ccc3nc(-c4ccccc4)c(-c4ccccc4)nc3c2)CC1 [BC18473]
18 | > 10000 | O=C(NCc1ccccc1)c1ccc2nc(-c3ccccc3)c(-c3ccccc3)nc2c1 [BC18475]
19 | 1000 to 10000 | CCOc1ccc(-c2nc3ccc(C(=O)NCCN(C)C)cc3nc2-c2ccc(OCC)cc2)cc1 [BC18477]
20 | 1000 to 10000 | Cc1cccc(-c2nc3ccc(C(=O)NC(C)C)cc3nc2-c2cccc(C)c2)c1 [BC18479]
21 | < 100 | CC1CCCCN1CCNC(=O)c1ccc2nc(-c3ccccc3)c(-c3ccccc3)nc2c1 (stereo not shown) [BC18483]
22 | 1000 to 10000 | Cc1cccc(-c2nc3ccc(C(=O)NCCN(C)C)cc3nc2-c2cccc(C)c2)c1 [BC18484]
23 | 1000 to 10000 | Cc1cccc(-c2nc3ccc(C(=O)NCCN4CCCCC4)cc3nc2-c2cccc(C)c2)c1 [BC18485]
24 | > 10000 | Cc1ccc(CNC(=O)c2ccc3nc(-c4ccccc4)c(-c4ccccc4)nc3c2)cc1 [BC18486]
25 | < 100 | CCOC(=O)N1CCN(C(=O)c2ccc3nc(-c4ccccc4)c(-c4ccccc4)nc3c2)CC1 [BC18487]
26 | < 100 | Cc1ccc(S(=O)(=O)c2nc(-c3ccccc3)oc2S(=O)(=O)c2ccc(C)cc2)cc1 [BC18500]
27 | > 10000 | CC(=O)CSc1oc(-c2ccccc2)nc1S(=O)(=O)c1ccc(Cl)cc1 [BC18501]
28 | > 10000 | CSc1oc(-c2ccccc2)nc1S(=O)(=O)c1ccc(F)cc1 [BC18502]
29 | 1000 to 10000 | CC(=O)CSc1oc(-c2ccc(F)cc2)nc1S(=O)(=O)c1ccccc1 [BC18503]
30 | > 10000 | CCCCSc1oc(-c2ccc(F)cc2)nc1S(=O)(=O)c1ccc(F)cc1 [BC18506]
31 | 1000 to 10000 | CC(C)Sc1oc(-c2ccc(F)cc2)nc1S(=O)(=O)c1ccc(Cl)cc1 [BC18507]
32 | < 100 | CCCCS(=O)(=O)c1oc(-c2ccc(F)cc2)nc1S(=O)(=O)c1ccc(C)cc1 [BC18509]
33 | 100 to 1000 | CCCCS(=O)(=O)c1oc(-c2ccc(F)cc2)nc1S(=O)(=O)c1ccc(F)cc1 [BC18510]
34 | 1000 to 10000 | CCSc1oc(-c2ccccc2)nc1S(=O)(=O)c1ccccc1 [BC18512]
